The values below come from the supplement of paper PMC10307832.

Assay in all cases: relative viability (nuclei count vs DMSO), 5 days (fraction); higher = more cells survive
Compound in experiment [1]: Cn1cc(-c2cnn3c(N)c(Br)c([C@@H]4CCCNC4)nc23)cn1 + Cc1nc(Nc2ncc(C(=O)Nc3c(C)cccc3Cl)s2)cc(N2CCN(CCO)CC2)n1 [Dasatinib] (partner 0.075 µM)
Summed up: (§1)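 Relative viability divides the nuclei count in treated wells by that in vehicle wells. Lung cancer cell lines were seeded in 1536-well plates, dosed by pin tool the next day, and fixed and stained after 5 days in one step with final 0.05% Triton X-100, 1% formaldehyde and 1 ug/ml Hoechst. Dosing was a single drug or a fixed anchor-drug dose plus five library-drug doses (not always all listed) in √10 steps, and values are medians of duplicate plates imaged at 4×.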

Compound in experiment [2]: Cn1cc(-c2cnn3c(N)c(Br)c([C@@H]4CCCNC4)nc23)cn1 + CC1(C)CCC(c2ccc(Cl)cc2)=C(CN2CCN(c3ccc(C(=O)NS(=O)(=O)c4ccc(N[C@H](CCN5CCOCC5)CSc5ccccc5)c(S(=O)(=O)C(F)(F)F)c4)cc3)CC2)C1 [Navitoclax] (partner 0.5 µM)
Summed up: as §1

Compound in experiment [3]: Cn1cc(-c2cnn3c(N)c(Br)c([C@@H]4CCCNC4)nc23)cn1 + O=C(CCCCCCC(=O)Nc1ccccc1)NO [Vorinostat] (partner 1 µM)
In short, it runs like this:
as §1

Compound in experiment [4]: Cn1cc(-c2cnn3c(N)c(Br)c([C@@H]4CCCNC4)nc23)cn1 + C[C@@H](Oc1cc(-c2cnn(C3CCNCC3)c2)cnc1N)c1c(Cl)ccc(F)c1Cl [Crizotinib] (partner 1 µM)
Summed up: as §1

As for NCI-H2087, the relative viability in experiment [1] (first compound 0.05 µM) is 0.856; in experiment [1] (first compound 0.1581 µM) it was 0.936; in experiment [1] (first compound 0.5 µM) it was 1.09; in experiment [1] (first compound 1.581 µM), 0.835; in experiment [1] (first compound 5 µM), 0.809; in experiment [2] (first compound 0.05 µM), 1.02. Also, the relative viability in experiment [2] (first compound 0.1581 µM) was 1.14; in experiment [2] (first compound 0.5 µM), 1.04; in experiment [2] (first compound 1.581 µM), 1.05; in experiment [2] (first compound 5 µM) it was 0.948; in experiment [3] (first compound 0.05 µM) it was 0.865; in experiment [3] (first compound 0.1581 µM), 0.891. For the same cell line, the relative viability in experiment [3] (first compound 0.5 µM) came to 0.341; in experiment [3] (first compound 1.581 µM), 0.424; in experiment [3] (first compound 5 µM), 0.653; in experiment [4] (first compound 0.05 µM), 1.01; in experiment [4] (first compound 0.1581 µM), 1.27; in experiment [4] (first compound 0.5 µM), 0.939. Further, the values for the relative viability in experiment [4] (first compound 1.581 µM) and in experiment [4] (first compound 5 µM) were 0.983 and 0.954, respectively.

For the cell line NCI-H2228, the relative viability in experiment [1] (first compound 0.05 µM) is 0.572; in experiment [1] (first compound 0.1581 µM), 0.66; in experiment [1] (first compound 0.5 µM), 0.459; in experiment [1] (first compound 1.581 µM) it was 0.294; in experiment [1] (first compound 5 µM), 0.241; in experiment [2] (first compound 0.05 µM), 1.09. In addition, the relative viability in experiment [2] (first compound 0.1581 µM) was found to be 1.12; in experiment [2] (first compound 0.5 µM) it was 1.13; in experiment [2] (first compound 1.581 µM), 0.64; in experiment [2] (first compound 5 µM), 0.481; in experiment [3] (first compound 0.05 µM) it was 0.636; in experiment [3] (first compound 0.1581 µM), 0.592. The relative viability was found to be 0.507 in experiment [3] (first compound 0.5 µM); 0.345 in experiment [3] (first compound 1.581 µM); 0.155 in experiment [3] (first compound 5 µM); 0.502 in experiment [4] (first compound 0.05 µM); 0.491 in experiment [4] (first compound 0.1581 µM); 0.404 in experiment [4] (first compound 0.5 µM). Moreover, the relative viability in experiment [4] (first compound 1.581 µM) came out at 0.419; in experiment [4] (first compound 5 µM), 0.277.

Turning to NCI-H727, the relative viability was determined as 0.29 in experiment [1] (first compound 0.05 µM); 0.292 in experiment [1] (first compound 0.1581 µM); 0.333 in experiment [1] (first compound 0.5 µM); 0.403 in experiment [1] (first compound 1.581 µM); 0.287 in experiment [1] (first compound 5 µM); 0.4 in experiment [2] (first compound 0.05 µM). Also, the relative viability is 0.43 in experiment [2] (first compound 0.1581 µM); 0.333 in experiment [2] (first compound 0.5 µM); 0.463 in experiment [2] (first compound 1.581 µM); 0.212 in experiment [2] (first compound 5 µM); 1.04 in experiment [3] (first compound 0.05 µM); 1.17 in experiment [3] (first compound 0.1581 µM). Besides, the relative viability was 1.33 in experiment [3] (first compound 0.5 µM); 1.15 in experiment [3] (first compound 1.581 µM); 1.13 in experiment [3] (first compound 5 µM); 0.912 in experiment [4] (first compound 0.05 µM); 0.965 in experiment [4] (first compound 0.1581 µM); 0.664 in experiment [4] (first compound 0.5 µM). In addition, the relative viability in experiment [4] (first compound 1.581 µM) turned out to be 0.648; in experiment [4] (first compound 5 µM), 0.353.

On to NCI-H650, for which the relative viability in experiment [1] (first compound 0.05 µM) turned out to be 0.439; in experiment [1] (first compound 0.1581 µM) it was 0.409; in experiment [1] (first compound 0.5 µM), 0.451; in experiment [1] (first compound 1.581 µM), 0.474; in experiment [1] (first compound 5 µM) it was 0.422; in experiment [3] (first compound 0.05 µM) it was 0.412. For the same cell line, the relative viability in experiment [3] (first compound 0.1581 µM) turned out to be 0.514; in experiment [3] (first compound 0.5 µM), 0.384; in experiment [3] (first compound 1.581 µM), 0.447; in experiment [3] (first compound 5 µM) it was 0.337; in experiment [4] (first compound 0.05 µM), 0.778; in experiment [4] (first compound 0.1581 µM), 0.708. The relative viability in experiment [4] (first compound 0.5 µM) amounted to 0.706; in experiment [4] (first compound 1.581 µM) it was 0.627; in experiment [4] (first compound 5 µM), 0.606.

As for NCI-H520, the relative viability came to 0.178 in experiment [1] (first compound 0.05 µM); 0.258 in experiment [1] (first compound 0.1581 µM); 0.191 in experiment [1] (first compound 0.5 µM); 0.176 in experiment [1] (first compound 1.581 µM); 0.165 in experiment [1] (first compound 5 µM); 1.21 in experiment [2] (first compound 0.05 µM). For the same cell line, the relative viability in experiment [2] (first compound 0.1581 µM) stood at 1.01; in experiment [2] (first compound 0.5 µM), 0.966; in experiment [2] (first compound 1.581 µM), 1.13; in experiment [2] (first compound 5 µM) it was 0.883; in experiment [3] (first compound 0.05 µM), 0.681; in experiment [3] (first compound 0.1581 µM) it was 0.676. The relative viability turned out to be 0.702 in experiment [3] (first compound 0.5 µM); 0.467 in experiment [3] (first compound 1.581 µM); 0.446 in experiment [3] (first compound 5 µM); 0.743 in experiment [4] (first compound 0.05 µM); 0.821 in experiment [4] (first compound 0.1581 µM); 0.694 in experiment [4] (first compound 0.5 µM). Further, the relative viability worked out at 0.601 in experiment [4] (first compound 1.581 µM) and 0.589 in experiment [4] (first compound 5 µM).

As for EBC-1, the relative viability is 0.39 in experiment [2] (first compound 0.05 µM); 0.347 in experiment [2] (first compound 0.1581 µM); 0.286 in experiment [2] (first compound 0.5 µM); 0.304 in experiment [2] (first compound 1.581 µM); 0.238 in experiment [2] (first compound 5 µM); 0.179 in experiment [4] (first compound 0.05 µM). Also, the relative viability turned out to be 0.179 in experiment [4] (first compound 0.1581 µM), 0.186 in experiment [4] (first compound 0.5 µM), 0.174 in experiment [4] (first compound 1.581 µM) and 0.17 in experiment [4] (first compound 5 µM).

Regarding NCI-H661, the relative viability was 0.898 in experiment [1] (first compound 0.05 µM); 0.962 in experiment [1] (first compound 0.1581 µM); 0.891 in experiment [1] (first compound 0.5 µM); 0.82 in experiment [1] (first compound 1.581 µM); 0.432 in experiment [1] (first compound 5 µM); 0.829 in experiment [3] (first compound 0.05 µM). The relative viability was found to be 0.82 in experiment [3] (first compound 0.1581 µM); 0.833 in experiment [3] (first compound 0.5 µM); 0.736 in experiment [3] (first compound 1.581 µM); 0.63 in experiment [3] (first compound 5 µM); 1.15 in experiment [4] (first compound 0.05 µM); 1.23 in experiment [4] (first compound 0.1581 µM). The results for the relative viability in experiment [4] (first compound 0.5 µM), in experiment [4] (first compound 1.581 µM) and in experiment [4] (first compound 5 µM) were 1.12, 1.05 and 0.98, respectively.

As to NCI-H1299, the relative viability in experiment [2] (first compound 0.05 µM) came to 1.03; in experiment [2] (first compound 0.1581 µM), 1.06; in experiment [2] (first compound 0.5 µM) it was 1.08; in experiment [2] (first compound 1.581 µM), 1.02; in experiment [2] (first compound 5 µM), 0.936; in experiment [4] (first compound 0.05 µM) it was 0.992. Also, the relative viability was 0.931 in experiment [4] (first compound 0.1581 µM), 0.965 in experiment [4] (first compound 0.5 µM), 0.676 in experiment [4] (first compound 1.581 µM) and 0.707 in experiment [4] (first compound 5 µM).

As for LK-2, the relative viability is 0.228 in experiment [1] (first compound 0.05 µM); 0.296 in experiment [1] (first compound 0.1581 µM); 0.26 in experiment [1] (first compound 0.5 µM); 0.228 in experiment [1] (first compound 5 µM); 0.915 in experiment [2] (first compound 0.05 µM); 0.711 in experiment [2] (first compound 0.1581 µM). Further, the relative viability in experiment [2] (first compound 0.5 µM) was 0.699; in experiment [2] (first compound 1.581 µM), 0.627; in experiment [2] (first compound 5 µM), 0.555; in experiment [3] (first compound 0.05 µM), 0.276; in experiment [3] (first compound 0.1581 µM), 0.351; in experiment [3] (first compound 0.5 µM) it was 0.236. Besides, the relative viability in experiment [3] (first compound 1.581 µM) is 0.249; in experiment [3] (first compound 5 µM), 0.162; in experiment [4] (first compound 0.05 µM) it was 0.23; in experiment [4] (first compound 0.1581 µM), 0.216; in experiment [4] (first compound 0.5 µM), 0.188; in experiment [4] (first compound 1.581 µM) it was 0.243. Also, the relative viability in experiment [4] (first compound 5 µM) came out at 0.232.
